Earlier results, collected in patent publication US20110207832A1, “SKIN DISINFECTANT COMPOSITION AND METHODS FOR MANUFACTURING AND USING” (Skinvisible Pharmaceuticals, Inc., priority 2010, published 2011).

Experiments:
[1] = in vivo

[H]/N=C(\N/C(=N/[H])NCCCCCCNC(=N)NC(=N)Nc1ccc(Cl)cc1)Nc1ccc(Cl)cc1 [chlorhexidine, 1,6-di(4-chlorophenyl-diguanido) hexane]
water solubility (in words): practically insoluble in water

Poly(vinylpyrrolidone/1-eicosene) [PVPE]
dermal toxicity [1]: no demonstrable dermal toxicity

Poly(vinylpyrrolidone/1-hexadecene) [PVPH]
dermal toxicity [1]: no demonstrable dermal toxicity
